Results as given in patent publication US10065950B2, “Substituted thiazoles as HIV integrase inhibitors” (Japan Tobacco Inc., priority 2010, dated 2018).

Target: HIV-1 pNL4-3 integrase (Human immunodeficiency virus type 1 group M subtype B (isolate NY5) (HIV-1), UniProt P12497)
Assay: Determination of enzyme (HIV integrase) inhibitory activity
Type: biochemical
Details: calculated from inhibition rate (fluorescence)
Outline: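 Full-length pNL4-3 integrase from E. coli (0.75 μM stock) reacted 60 min at 37° C with compound and biotinylated donor DNA bound to streptavidin plates, in MOPS buffer with 5 mM MgCl2 and 10% DMSO. Digoxigenin-labelled target DNA (25 nM stock) then added for 20 min; strand transfer read by peroxidase anti-digoxigenin fluorescence (Ex 325/Em 420 nm).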

SMILES	IC50
CC(C)NC(=O)C1CN(C(C)C)C(=O)c2c(O)c(=O)c(-c3ncc(Cc4ccc(F)cc4F)s3)cn21 (stereo not shown) [Example 31]	8.3 nM
CCO[C@H](CC)[C@H]1CN(C(C)C)C(=O)c2c(O)c(=O)c(-c3nnc(Cc4ccc(F)cc4)s3)cn21 [Example 389]	14 nM
COC[C@H]1CN(C(C)C)C(=O)c2c(O)c(=O)c(-c3nnc(Cc4ccc(F)cc4C)s3)cn21 [Example 231]	11 nM
CNC(=O)[C@@]1(C)CN(C(C)C)C(=O)c2c(O)c(=O)c(-c3nnc(Cc4ccc(F)cc4)s3)cn21 [Example 185]	15 nM
COC[C@H]1CN(C(C)C)C(=O)c2c(O)c(=O)c(-c3nnc(Cc4ccc(F)cc4F)s3)cn21 [Example 85]	7.5 nM
CC(C)N1CC(C(=O)O)n2cc(-c3ncc(Cc4ccc(F)cc4F)s3)c(=O)c(O)c2C1=O (stereo not shown) [Example 23]	12 nM
CCN1C(=O)c2c(O)c(=O)c(-c3nnc(Cc4ccc(F)cc4F)s3)cn2C[C@@H]1COCCOC [Example 130]	13 nM
CC(C)N1C[C@](C)(C(=O)N2CC[C@H](O)C2)n2cc(-c3nnc(Cc4ccc(F)cc4)s3)c(=O)c(O)c2C1=O [Example 204]	13 nM
COC[C@H]1CN(C2CCC2)C(=O)c2c(O)c(=O)c(-c3nnc(Cc4ccc(F)cc4)s3)cn21 [Example 92]	8.7 nM
COCC1Cn2cc(-c3ncc(Cc4ccc(F)cc4F)s3)c(=O)c(O)c2C(=O)N1CC(C)C (stereo not shown) [Example 62]	9.2 nM
COCC1Cn2cc(-c3nnc(Cc4ccc(F)cc4F)s3)c(=O)c(O)c2C(=O)N1C(C)C (stereo not shown) [Example 42]	3.4 nM
CC(C)N1CC(C#N)n2cc(-c3ncc(Cc4ccc(F)cc4F)s3)c(=O)c(O)c2C1=O (stereo not shown) [Example 79]	6.4 nM
CCNC(=O)[C@@]1(C)CN([C@@H](C)C2CC2)C(=O)c2c(O)c(=O)c(-c3ncc(Cc4ccc(F)cc4)s3)cn21 [Example 276]	16 nM
COCCN(C)C(=O)CC1CN(C(C)C)C(=O)c2c(O)c(=O)c(-c3ncc(Cc4ccc(F)cc4F)s3)cn21 (stereo not shown) [Example 73]	7.7 nM
COC[C@H]1CN(CC2CC2)C(=O)c2c(O)c(=O)c(-c3nnc(Cc4ccc(F)cc4)s3)cn21 [Example 116]	9.6 nM
C[C@@H](C1CC1)N1C[C@](C)(C(=O)N2CCC2)n2cc(-c3ncc(Cc4ccc(F)cc4)s3)c(=O)c(O)c2C1=O [Example 273]	14 nM
CC(C)OC[C@H]1CN(C(C)C)C(=O)c2c(O)c(=O)c(-c3nnc(Cc4ccc(F)cc4)s3)cn21 [Example 365]	12 nM
COC[C@@H]1[C@H](C)n2cc(-c3nnc(Cc4ccc(F)cc4)s3)c(=O)c(O)c2C(=O)N1C(C)C [Example 232]	15 nM
CN(C)C(=O)[C@@]1(C)CN(C)C(=O)c2c(O)c(=O)c(-c3ncc(Cc4ccc(F)cc4)s3)cn21 [Example 314]	7.9 nM
COC[C@H]1CN([C@H](C)C(C)C)C(=O)c2c(O)c(=O)c(-c3nnc(Cc4ccc(F)cc4F)s3)cn21 [Example 148]	9.8 nM
COC[C@@H]1Cn2cc(-c3nnc(Cc4ccc(F)cc4F)s3)c(=O)c(O)c2C(=O)N1CC1CC1 [Example 126]	7.3 nM
CN1C[C@@](C)(C(=O)N2CCC2)n2cc(-c3ncc(Cc4ccc(F)cc4)s3)c(=O)c(O)c2C1=O [Example 266]	11 nM
CCN1C(=O)c2c(O)c(=O)c(-c3nnc(Cc4ccc(F)cc4F)s3)cn2C[C@@H]1COC [Example 114]	8.1 nM

SMILES	IC50
COC[C@H]1CN(C(C)C)C(=O)c2c(O)c(=O)c(-c3nnc(CCc4ccc(F)cc4)s3)cn21 [Example 241]	14 nM
CC(C)N1C[C@](C)(C(=O)N(C)C)n2cc(-c3nnc(Cc4ccc(F)cc4)s3)c(=O)c(O)c2C1=O [Example 177]	17 nM
COC1CN(C(=O)[C@@]2(C)CN(CC3CC3)C(=O)c3c(O)c(=O)c(-c4ncc(Cc5ccc(F)cc5)s4)cn32)C1 [Example 262]	10 nM
CCN1C(=O)c2c(O)c(=O)c(-c3nnc(Cc4ccc(F)cc4F)s3)cn2CC1(COC)COC [Example 319]	5.8 nM
CC(C)N1CC2(CCOCC2)n2cc(-c3nnc(Cc4ccc(F)cc4F)s3)c(=O)c(O)c2C1=O [Example 8]	8.9 nM
COCC1(COC)Cn2cc(-c3nnc(Cc4ccc(F)cc4)s3)c(=O)c(O)c2C(=O)N1C(C)C [Example 320]	9.4 nM
CCN1C(=O)c2c(O)c(=O)c(-c3ncc(Cc4ccc(F)cc4)s3)cn2C[C@H]1C [Example 330]	6.4 nM
CCN1C[C@@H](COCCOC)n2cc(-c3nnc(Cc4ccc(F)cc4)s3)c(=O)c(O)c2C1=O [Example 128]	19 nM
CC(C)N1C(=O)c2c(O)c(=O)c(-c3nnc(Cc4ccc(F)cc4F)s3)cn2CC12CCOCC2 [Example 100]	8.1 nM
COC[C@H]1CN(C(C)C)C(=O)c2c(O)c(=O)c(-c3nnc(Cc4ccc(F)c(Cl)c4)s3)cn21 [Example 243]	7.6 nM
COC[C@H]1[C@H](C)N(C(C)C)C(=O)c2c(O)c(=O)c(-c3nnc(Cc4ccc(F)cc4)s3)cn21 [Example 285]	11 nM
CCCCOC[C@H]1CN(C(C)C)C(=O)c2c(O)c(=O)c(-c3nnc(Cc4ccc(F)cc4)s3)cn21 [Example 364]	10 nM
CCN1C(=O)c2c(O)c(=O)c(-c3nnc(Cc4ccc(F)cc4)s3)cn2[C@H](COC)[C@H]1C [Example 289]	10 nM
CC(C)N1C(=O)c2c(O)c(=O)c(-c3nnc(Cc4ccc(F)cc4)s3)cn2C[C@@]1(C)C(=O)N(C)C [Example 315]	8.8 nM
COC[C@H]1CN(C(C)C)C(=O)c2c(O)c(=O)c(-c3nnc(Cc4ccc(F)c(F)c4)s3)cn21 [Example 144]	7.7 nM
COC[C@@H]1CN(C(C)C)C(=O)c2c(O)c(=O)c(-c3nnc(Cc4ccc(F)cc4F)s3)cn21 [Example 87]	7.7 nM
COC1CN(C(=O)[C@@]2(C)CN([C@@H](C)C3CC3)C(=O)c3c(O)c(=O)c(-c4ncc(Cc5ccc(F)cc5)s4)cn32)C1 [Example 274]	12 nM
CCN1C(=O)c2c(O)c(=O)c(-c3nnc(Cc4ccc(F)cc4)s3)cn2[C@@H](C)[C@@H]1COC [Example 298]	9 nM
CNC(=O)[C@@]1(C)CN(C(C)C)C(=O)c2c(O)c(=O)c(-c3nnc(Cc4ccc(F)cc4F)s3)cn21 [Example 191]	12 nM
COC[C@H]1CN(C(C)C)C(=O)c2c(O)c(=O)c(-c3nnc(Cc4ccc(F)c(OC)c4)s3)cn21 [Example 250]	17 nM
CC(C)N1C(=O)c2c(O)c(=O)c(-c3nnc(Cc4ccc(F)cc4F)s3)cn2C[C@H]1CN(C)S(C)(=O)=O [Example 154]	7.3 nM
CC(C)N1C(=O)c2c(O)c(=O)c(-c3nnc(Cc4ccc(F)cc4F)s3)cn2CC1C(=O)N(C)C (stereo not shown) [Example 53]	10 nM
CCC(=O)N(C)C[C@@]1(C)CN(C(C)C)C(=O)c2c(O)c(=O)c(-c3nnc(Cc4ccc(F)cc4F)s3)cn21 [Example 207]	24 nM

SMILES	IC50
CC(C)N1C(=O)c2c(O)c(=O)c(-c3nnc(Cc4ccc(F)cc4)s3)cn2C[C@H]1CN(C)C(=O)C(C)(C)C [Example 182]	9.7 nM
CCN(C)C(=O)CC1CN(C(C)C)C(=O)c2c(O)c(=O)c(-c3ncc(Cc4ccc(F)cc4F)s3)cn21 (stereo not shown) [Example 76]	8.3 nM
CCNC(=O)[C@]1(COC)CN(C(C)C)C(=O)c2c(O)c(=O)c(-c3ncc(Cc4ccc(F)cc4)s3)cn21 [Example 393]	15 nM
CCN1C(=O)c2c(O)c(=O)c(-c3nnc(Cc4ccc(F)cc4)s3)cn2C[C@]1(C)COC [Example 318]	6.5 nM
CCN1C[C@@](C)(C(=O)N(C)C)n2cc(-c3ncc(Cc4ccc(F)cc4)s3)c(=O)c(O)c2C1=O [Example 248]	14 nM
CNC(=O)CC1CN(C(C)C)C(=O)c2c(O)c(=O)c(-c3ncc(Cc4ccc(F)cc4F)s3)cn21 (stereo not shown) [Example 34]	8.2 nM
CCC(CC)N1C[C@H](COC)n2cc(-c3nnc(Cc4ccc(F)cc4)s3)c(=O)c(O)c2C1=O [Example 337]	17 nM
CCN(C)C(=O)[C@]1(C)Cn2cc(-c3nnc(Cc4ccc(F)cc4)s3)c(=O)c(O)c2C(=O)N1C(C)C [Example 331]	9.3 nM
CCNC(=O)[C@]1(C)CN(C2CC2)C(=O)c2c(O)c(=O)c(-c3ncc(Cc4ccc(F)cc4)s3)cn21 [Example 267]	11 nM
CCNC(=O)[C@@]1(C)CN(C(C)C)C(=O)c2c(O)c(=O)c(-c3ncc(Cc4ccc(F)cc4)s3)cn21 [Example 239]	16 nM
CC(=O)N(C)CC1CN(C(C)C)C(=O)c2c(O)c(=O)c(-c3ncc(Cc4ccc(F)cc4F)s3)cn21 (stereo not shown) [Example 80]	9.8 nM
COCCOC[C@@]1(C(=O)N(C)C)CN(C(C)C)C(=O)c2c(O)c(=O)c(-c3nnc(Cc4ccc(F)cc4)s3)cn21 [Example 391]	24 nM
CC(C)N1C(=O)c2c(O)c(=O)c(-c3nnc(Cc4ccc(F)cc4F)s3)cn2C[C@@]1(C)C(=O)N(C)C [Example 321]	7 nM
CCOC[C@@H]1Cn2cc(-c3ncc(Cc4ccc(F)cc4)s3)c(=O)c(O)c2C(=O)N1CC [Example 222]	6.5 nM
CC(C)[C@H]1Cn2cc(-c3nnc(Cc4ccc(F)cc4)s3)c(=O)c(O)c2C(=O)N1C(C)C [Example 224]	7.3 nM
CNC(=O)C1CN(C)C(=O)c2c(O)c(=O)c(-c3ncc(Cc4ccc(F)cc4F)s3)cn21 (stereo not shown) [Example 160]	6.1 nM
CC(C)N1CC(CN2C(=O)c3ccccc3C2=O)n2cc(-c3ncc(Cc4ccc(F)cc4F)s3)c(=O)c(O)c2C1=O (stereo not shown) [Example 65]	13 nM
COC[C@H]1CN(C(C)C)C(=O)c2c(O)c(=O)c(-c3nnc(Cc4ccc(OC)cc4)s3)cn21 [Example 240]	52 nM
CN(C)C(=O)[C@@]1(C)CN(C)C(=O)c2c(O)c(=O)c(-c3ncc(Cc4ccc(F)cc4F)s3)cn21 [Example 336]	7.2 nM
COCCOC[C@@H]1CN(CC(C)C)C(=O)c2c(O)c(=O)c(-c3nnc(Cc4ccc(F)cc4F)s3)cn21 [Example 47]	12 nM
COC[C@H]1CN(C(C)C)C(=O)c2c(O)c(=O)c(-c3nnc(Cc4cc(OC)c(F)cc4F)s3)cn21 [Example 277]	12 nM
